Reference: ChEMBL document CHEMBL2074480, “Characterization of tetrandrine, a potent inhibitor of P-glycoprotein-mediated multidrug resistance” (Cancer Chemother Pharmacol, 2004)

Biological target: ATP-dependent translocase ABCB1 (Homo sapiens, UniProt P08183)
Assay: TP_TRANSPORTER: drug resistance (vincristine) in KBV200 cells
Format: functional, cell-based

Sequence of ATP-dependent translocase ABCB1 (P08183 whole entry): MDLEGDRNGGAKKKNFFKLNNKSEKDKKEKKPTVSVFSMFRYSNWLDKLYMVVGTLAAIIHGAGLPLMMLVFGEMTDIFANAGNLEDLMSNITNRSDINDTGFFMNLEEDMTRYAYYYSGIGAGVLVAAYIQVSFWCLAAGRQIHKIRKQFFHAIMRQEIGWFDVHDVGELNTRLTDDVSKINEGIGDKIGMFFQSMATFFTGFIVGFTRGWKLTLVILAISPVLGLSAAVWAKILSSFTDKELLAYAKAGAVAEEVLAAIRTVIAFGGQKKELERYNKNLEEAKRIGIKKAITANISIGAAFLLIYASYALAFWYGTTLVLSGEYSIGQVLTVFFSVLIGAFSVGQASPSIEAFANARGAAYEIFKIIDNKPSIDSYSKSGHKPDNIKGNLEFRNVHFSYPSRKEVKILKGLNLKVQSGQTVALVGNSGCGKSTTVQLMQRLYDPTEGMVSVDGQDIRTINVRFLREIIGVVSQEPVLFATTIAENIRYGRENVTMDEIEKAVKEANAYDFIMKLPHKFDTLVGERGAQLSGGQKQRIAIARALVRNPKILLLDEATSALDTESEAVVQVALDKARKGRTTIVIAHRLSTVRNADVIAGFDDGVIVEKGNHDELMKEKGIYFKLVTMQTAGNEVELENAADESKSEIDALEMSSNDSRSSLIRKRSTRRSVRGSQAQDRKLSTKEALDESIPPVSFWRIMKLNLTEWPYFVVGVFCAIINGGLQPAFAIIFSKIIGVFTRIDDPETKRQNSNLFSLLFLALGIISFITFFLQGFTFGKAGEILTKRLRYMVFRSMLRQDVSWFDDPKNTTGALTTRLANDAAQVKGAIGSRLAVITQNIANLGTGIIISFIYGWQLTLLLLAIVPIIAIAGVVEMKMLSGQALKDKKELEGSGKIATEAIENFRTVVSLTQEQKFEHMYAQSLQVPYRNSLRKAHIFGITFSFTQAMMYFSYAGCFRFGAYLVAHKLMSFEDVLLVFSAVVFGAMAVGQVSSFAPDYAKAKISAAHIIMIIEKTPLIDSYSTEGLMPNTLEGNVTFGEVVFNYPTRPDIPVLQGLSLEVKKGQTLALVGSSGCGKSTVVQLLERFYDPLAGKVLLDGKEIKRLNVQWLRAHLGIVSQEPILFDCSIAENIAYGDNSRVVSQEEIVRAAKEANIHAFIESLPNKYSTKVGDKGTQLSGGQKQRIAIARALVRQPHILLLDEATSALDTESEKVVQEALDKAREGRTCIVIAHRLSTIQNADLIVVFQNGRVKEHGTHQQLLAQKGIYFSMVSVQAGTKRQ

COc1ccc2cc1Oc1ccc(cc1)C[C@H]1c3cc(c(OC)cc3CCN1C)Oc1c(OC)c(OC)cc3c1[C@H](C2)N(C)CC3 [FANCHININ]
Activity: inhibitor [+]
